Measured values taken from article PMC6849653, “Volasertib preclinical activity in high-risk hepatoblastoma” (Oncotarget, 2019).
“Also recorded” adds a separate entry of the source. Read-outs that look alike come from different tables or passages of the source. Values belong to the molecule of their own block, whether it stands above or below them.

Columns and labels:
[1] = system: hepatoblastoma cell lines HepG2, Huh-6 and HB-214 versus hepatocytes; test: 60-agent chemical screen, hepatoblastoma cell lines taken together / versus hepatocytes
Method: (§2) On day 0, cells were trypsinized and plated into a white walled 384-well plate containing pre-diluted known concentrations of various drugs. After 72 hours, an equal volume of Cell-Titer Glo 2.0 (G9243, Promega) was added to each well, incubated at room temperature while rocking in the dark for 15 minutes, followed by luminescence acquisition with a BioTek Synergy HT plate reader (BioTek, Winooski, VT).

Huh-6 = test: 60-agent chemical screen, cell viability (Cell-Titer Glo), Huh-6; format: cell-based; conditions: Homo sapiens, 60-agent screen, 72 hours, a value of 10,000 indicates that the drug did not inhibit viability, read-out: absolute IC50, Huh-6
Method: as §2

HepG2 = test: 60-agent chemical screen, cell viability (Cell-Titer Glo), HepG2; format: cell-based; conditions: Homo sapiens, 60-agent screen, 72 hours, a value of 10,000 indicates that the drug did not inhibit viability, read-out: absolute IC50, HepG2;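 further: luminescence read-out in 384-well plates, with cells plated directly onto drug dilutions of known concentration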
Method: as §2

normal human hepatocytes = test: 60-agent chemical screen, cell viability (Cell-Titer Glo), hepatocytes; format: cell-based; conditions: Hepatocyte;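 further: cells were plated onto pre-diluted drug concentrations in 384-well plates, and viability was read after 72 h as CellTiter-Glo 2.0 luminescence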
Method: as §2

HB-214 [2] = test: 60-agent chemical screen, cell viability (Cell-Titer Glo), HB-214; format: cell-based; conditions: Homo sapiens; 60-agent screen, 72 hours; a value of 10,000 indicates that the drug did not inhibit viability; read-out: absolute IC50, HB-214;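 further: viability read as luminescence once Cell-Titer Glo 2.0 reagent was added to drug-treated cells in 384-well plates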
Method: as §2

HB-282 = test: Cell proliferation study, HB-282; format: cell-based, human; conditions: 72 h drug exposure, Cell-Titer Glo, average of quadruplicates, read-out: absolute IC50, HB-282
Method: (§1) On day 0, cells were trypsinized and plated into white walled 384-well plates. On day 1, when cells were 70% confluent, volasertib (S2235, SelleckChem, Houston, TX), SN38 (S4908, SelleckChem) or vincristine (S1241, SelleckChem) suspended in DMSO were added to plates using a Tecan D300e drug printer (Tecan Life Sciences, Switzerland), ensuring less than 1% DMSO. […] Absolute IC50 values were calculated using GraphPad Prism (GraphPad, San Diego, CA). Synergy values were calculated using CalcuSyn (Biosoft, Cambridge, UK) software.

HB-279 [3] = test: Cell proliferation study, HB-279; format: cell-based, human; conditions: 72 h drug exposure, Cell-Titer Glo, average of quadruplicates, read-out: absolute IC50, HB-279
Method: as §1

HB-243 = test: Cell proliferation study, HB-243; format: cell-based, human; conditions: 72 h drug exposure, Cell-Titer Glo, average of quadruplicates, read-out: absolute IC50, HB-243
Method: as §1

HB-279 [4] = test: Cell cycle analysis by flow cytometry (PI staining), HB-279; format: cell-based, human; conditions: for Percent of cells in S phase / Percent of cells in G2/M / Percent of cells in G1: HB-279, 72 hour treatment, 150 nM volasertib, 3 nM SN38, N=3; for Percent of cells in S phase: DMSO 16.1; for Percent of cells in G2/M: DMSO 26.8; for Percent of cells in G1: DMSO 56.5; for cell cycle arrest as compared to vehicle control: clinically achievable concentrations, 72 hours
Method: After a 72-hour drug treatment, cells were collected and fixed in ice cold 70% ethanol. After rehydration, cells were stained using the Guava Cell Cycle Reagent for Flow Cytometer (4500-0220, MilliporeSigma, Germany) according to the product protocol. Cells were analyzed for propidium iodide using the Guava EasyCyte 8HT (MilliporeSigma). Flow data was analyzed using CytoBank software (Cytobank, Santa Clara, CA).

HB-295 = test: Cell proliferation study, HB-295; format: cell-based, human; conditions: 72 h drug exposure, Cell-Titer Glo, average of quadruplicates, read-out: absolute IC50, HB-295
Method: as §1

HB-284 = test: Cell proliferation study, HB-284; format: cell-based, human; conditions: 72 h drug exposure, Cell-Titer Glo, average of quadruplicates, read-out: absolute IC50, HB-284
Method: as §1

[5] = cited from earlier work
[6] = system: six hepatoblastoma cell cultures; test: Cell proliferation study, six hepatoblastoma cell cultures together; format: cell-based, human
Method: as §1

PLK3 = system: PLK3; parameters: method as in PMID 19383823; conditions: read-out: cell-free enzyme IC50, PLK3; cited from earlier work
[7] = volasertib; cited from earlier work
SMMC7721 = system: SMMC7721; parameters: method as in PMID 27904765; conditions: hepatocellular carcinoma cell line; cited from earlier work
HB-214 PDX = test: HB-214 hepatoblastoma PDX in athymic nude mice; format: in vivo; conditions: volasertib 30 mg/kg IV 2qwk, irinotecan 10 mg/kg IP q5d, alone or combined; 6 mice per group
Method: These fragments were engrafted in the interscapular region of 6-8 week-old female athymic nude mice (Athymic NudeFoxn1^nu, ENVIGO, Gannat, France). After latency period, mice with a subcutaneously growing tumor between 62 and 256 mm^3 were allocated to each treatment arm according to their tumor volume to obtain homogenous mean and median tumor volume in each arm. Treatments were randomly attributed to boxes housing up to five mice. […] Tumor volume (TV) was evaluated by caliper measurement, 2 or 3 times a week during latency and treatment period. The formula Total Volume (TV) (mm^3) = [length (mm) x width (mm)^2]/2 was used, where the length and the width are the longest and the shortest diameters of the tumor. The tumor growth delay index (TGDI) was calculated as the median growth delay in the treated group divided by the median growth delay in the control group, and represented the x-fold time to reach 5-fold the TV at D0.The ratio between the mean TV of a treated group (T) and the mean TV of the control group (C) was calculated at each measurement, and represented the antitumoral activity of the tested compound(s). The tumor growth rate, evaluated by the formula [DT/T0]-1 where DT is the delta of tumor size between the considered day and the day of enrolment and T0 is mean TV at D0, gives the percentage of growth compared with the initial day. […]

PLK1 = system: PLK1; parameters: method as in PMID 19383823; conditions: read-out: cell-free enzyme IC50, PLK1; cited from earlier work
PLK2 = system: PLK2; parameters: method as in PMID 19383823; conditions: read-out: cell-free enzyme IC50, PLK2; cited from earlier work
HB-214 [8] = test: Cell proliferation study, HB-214; format: cell-based; conditions: Homo sapiens; 72 h drug exposure, Cell-Titer Glo, average of quadruplicates; read-out: absolute IC50, HB-214
Method: as §1

SK-Hep1 = system: SK-Hep1; parameters: method as in PMID 27904765; conditions: hepatocellular carcinoma cell line; cited from earlier work

IC50 (Huh-6): > 10000 nM
IC50 (HepG2): > 10000 nM
Compound: CC(=O)Nc1cccc(-n2c(=O)n(C3CC3)c(=O)c3c(Nc4ccc(I)cc4F)n(C)c(=O)c(C)c32)c1 [trametinib]
effectiveness across the three hepatoblastoma cell lines ([1]; 60-agent screen): only effective in one cell line out of three
IC50 (normal human hepatocytes; 60-agent screen, 72 hours, a value of 10,000 indicates that the drug did not inhibit viability, read-out: absolute IC50, Hepatocytes): > 10000 nM
IC50 (HB-214 [2]): 210 nM

Compound: CCc1c2c(nc3ccc(O)cc13)-c1cc3c(c(=O)n1C2)COC(=O)[C@]3(O)CC [SN38]
IC50 (HB-282): 26 nM
IC50 (HB-279 [3]): 200 nM
IC50 (HB-243): 160 nM
Percent of cells in S phase (HB-279 [4]): 17.7%
Percent of cells in G2/M (HB-279 [4]): 34.3%
Percent of cells in G1 (HB-279 [4]): 47.6%
cell cycle arrest as compared to vehicle control (HB-279 [4]): modest G2/M phase arrest
IC50 (HB-295): 500 nM
IC50 (HB-284): 210 nM
AUC0-∞ ([5]; SN38, pediatric study): 0.214 µM·h
Cmax ([5]; SN38 from clinical trials): 120 nM

Compound: CC[C@]1(O)C[C@H]2CN(CCc3c([nH]c4ccccc34)[C@@](C(=O)OC)(c3cc4c(cc3OC)N(C=O)[C@H]3[C@@](O)(C(=O)OC)[C@H](OC(C)=O)[C@]5(CC)C=CCN6CC[C@]43[C@@H]65)C2)C1 [vincristine]
sensitivity of hepatoblastoma cell lines to vincristine ([6]; 72hr drug exposure, Supplementary Figure 4): Several cell lines were highly resistant
Cmax ([5]; published Cmax of vincristine): 90 nM

IC50 ([6]; Homo sapiens, range over HB-214, HB-243, HB-279, HB-282, HB-284, HB-295, read-out: IC50 across all six hepatoblastoma cell cultures): < 10000 nM
IC50 (Huh-6): 3820 nM
IC50 (HepG2): 528 nM
Compound: CC[C@@H]1C(=O)N(C)c2cnc(Nc3ccc(C(=O)N[C@H]4CC[C@H](N5CCN(CC6CC6)CC5)CC4)cc3OC)nc2N1C(C)C [volasertib]
IC50 (PLK3): 56 nM
side effects [7]: neutropenia and anemia
IC50 ([1]; Homo sapiens, Hepatocyte, read-out: IC50, cancer cells): 360 to 528 nM
IC50 (HB-282; Homo sapiens): 2130 nM
IC50 (HB-279 [3]; Homo sapiens): 2020 nM
IC50 (SMMC7721): 3970 nM
IC50 (HB-243; Homo sapiens): 252 nM
IC50 (normal human hepatocytes; as restated in the discussion, read-out: IC50, normal hepatocytes): > 10000 nM
tumor growth (mean tumor volume over time) (HB-214 PDX): appreciable and cytostatic; also recorded: slowed
IC50 (PLK1): 0.87 nM
IC50 (PLK2): 5 nM
IC50 (HB-214 [8]): 725 nM
Percent of cells in S phase (HB-279 [4]): 14.2%
Percent of cells in G2/M (HB-279 [4]): 40.7%
Percent of cells in G1 (HB-279 [4]): 44.7%
cell cycle arrest as compared to vehicle control (HB-279 [4]): cell cycle arrest in G2/M
IC50 (HB-295; Homo sapiens): 1170 nM
IC50 (HB-214 [2]): 360 nM
IC50 (HB-284; Homo sapiens): 3300 nM
IC50 (SK-Hep1): 7020 nM
Cmax ([5]; measured in clinical trials): 1220 nM
